Laboratory results taken from article PMC12181400, “Leveraging viral genome sequences and machine learning models for identification of potentially selective antiviral agents” (Communications Chemistry, 2025).
Where a name gives a salt, the structure may show the parent alone. Read-outs that look alike come from different tables or passages of the source.

How the values were obtained:
MT-4 cells = test system: MT-4 cells; design: method as in pmid 19265512; conditions: MT-4 cells in the presence of 20% NHS; ref pmid 19265512; read-out: antiviral EC90; cited from earlier work
IN = test system: IN; design: method as in pmid 19265512; conditions: in vitro strand transfer assay; ref pmid 19265512; read-out: IC50, inhibition of IN; cited from earlier work
[1] = test system: SARS-CoV-2 Spike protein containing PPs, entry into HEK293-ACE2 cells; test: microbe, parasite or virus in culture; format: cell-based; conditions: PP entry, HEK293-ACE2, 48 h, mean ± SD of two independent experiments; for IC50: Severe acute respiratory syndrome coronavirus 2, 11 concentrations
[2] = test system: cell viability (tox21-are-bla-p1); conditions: cited from earlier work
[3] = test system: cell viability (tox21-ar-mda-kb2-luc-agonist-p3); conditions: cited from earlier work
[4] = test system: cell viability (tox21-ap1-agonist-p1); conditions: cited from earlier work
[5] = test system: cell viability (tox21-ar-mda-kb2-luc-antagonist-p2); conditions: cited from earlier work
[6] = test system: cell viability (tox21-car-agonist-p1); conditions: cited from earlier work
[7] = test system: cell viability (tox21-car-antagonist-p1); conditions: cited from earlier work
[8] = test system: wild-type (WT) and drug-resistant HIV-1 isolates; design: method as in pmid 18043758; conditions: multiple wild-type and drug-resistant HIV-1 isolates; ref pmid 18043758; cited from earlier work
[9] = test system: hepatitis B surface antigen (HBsAg) secretion; design: method as in PMID 17723297; conditions: Hep G2.2.15 cell line; read-out: IC50, inhibition of HBsAg secretion; cited from earlier work
[10] = curve rank −9 to 9, 0 = inactive, ref NCATS Tox21 public data browser

Structure (SMILES): Cn1c(=O)c(C(=O)NCCO)c(O)c2ncc(Cc3ccc(F)cc3)cc21 [GSK-364735]
- EC90 (MT-4 cells): 40 nM
- IC50 (IN): 8 nM

Structure (SMILES): N=c1ccn(C2OC(COP(=O)(O)O)C(O)C2O)c(=O)[nH]1 (centres unmarked) [NCGC00014029]
- efficacy [1]: −76.63 ± 14.92%
- IC50 [1]: 1310 ± 320 nM

Structure (SMILES): COc1ccc(-c2nc3ccccc3n2Cc2ccccc2)cc1COc1ccc(NC(C)=O)cc1 [NCGC00166392]
- efficacy [1]: −83.25 ± 8.42%
- IC50 [1]: 1370 nM

Structure (SMILES): COc1ccc(-c2csc3ncnc(N(C)CCO)c23)cc1 [NCGC00608516]
- efficacy [1]: −93.10 ± 32.33%
- IC50 [1]: 11700 ± 2820 nM

Structure (SMILES): COc1ccc(C(CNC(=O)c2ccc3ccccc3n2)N2CCCC2)cc1 (centres unmarked) [NCGC00622469]
- efficacy [1]: −64.06 ± 9.68%
- IC50 [1]: 5910 ± 7000 nM

Structure (SMILES): O=C(Nc1nc(-c2ccc(F)cc2)cs1)c1c(F)cccc1F [NCGC00633127]
- efficacy [1]: −67.42 ± 5.30%
- IC50 [1]: 4590 ± 370 nM

Structure (SMILES): COc1cc(C(=O)NCc2ccc(OCCN(C)C)cc2)cc(OC)c1OC [Trimethobenzamide hydrochloride]
- tox21-are-bla-p1-viability (curve rank) [2]: 0
- tox21-ar-mda-kb2-luc-agonist-p3-viability (curve rank) [3]: 0
- tox21-ap1-agonist-p1-viability (curve rank) [4]: 0
- tox21-ar-mda-kb2-luc-antagonist-p2-viability (curve rank) [5]: 0
- tox21-car-agonist-p1-viability (curve rank) [6]: 0
- tox21-car-antagonist-p1-viability (curve rank) [7]: 0

Structure (SMILES): CC[C@]12CCCN3CCc4c(n(c5ccccc45)[C@@](O)(C(=O)OC)C1)[C@@H]32 [Vincamine]
- tox21-are-bla-p1-viability (curve rank) [2, 10]: 0
- tox21-ar-mda-kb2-luc-agonist-p3-viability (curve rank) [3, 10]: 0
- tox21-ap1-agonist-p1-viability (curve rank) [4, 10]: 0
- tox21-ar-mda-kb2-luc-antagonist-p2-viability (curve rank) [5, 10]: 0
- tox21-car-agonist-p1-viability (curve rank) [6, 10]: 0
- tox21-car-antagonist-p1-viability (curve rank) [7, 10]: 0

Structure (SMILES): COc1cc(-c2ccc(=O)[nH]n2)ccc1OC(F)F [Zardaverine]
- tox21-are-bla-p1-viability (curve rank) [2, 10]: 0
- tox21-ar-mda-kb2-luc-agonist-p3-viability (curve rank) [3, 10]: 0
- tox21-ap1-agonist-p1-viability (curve rank) [4, 10]: 0
- tox21-ar-mda-kb2-luc-antagonist-p2-viability (curve rank) [5, 10]: 0
- tox21-car-agonist-p1-viability (curve rank) [6, 10]: 0
- tox21-car-antagonist-p1-viability (curve rank) [7, 10]: 0

Structure (SMILES): CC1=C2[C@H]3OC(=O)[C@@H](C)[C@@H]3CC[C@@]2(C)C=CC1=O [alpha-Santonin]
- tox21-are-bla-p1-viability (curve rank) [2, 10]: 0
- tox21-ar-mda-kb2-luc-agonist-p3-viability (curve rank) [3, 10]: 0
- tox21-ap1-agonist-p1-viability (curve rank) [4, 10]: 0
- tox21-ar-mda-kb2-luc-antagonist-p2-viability (curve rank) [5, 10]: 0
- tox21-car-agonist-p1-viability (curve rank) [6, 10]: 0
- tox21-car-antagonist-p1-viability (curve rank) [7, 10]: 0

Structure (SMILES): C=C(C)[C@@H]1CC[C@]2(C(=O)O)CC[C@]3(C)[C@H](CC[C@@H]4[C@@]5(C)CC[C@H](OC(=O)CC(C)(C)C(=O)O)C(C)(C)[C@@H]5CC[C@]43C)[C@@H]12 [bevirimat, 3-O-(3',3'-dimethylsuccinyl) betulinic acid]
- in vitro antiviral activity [8]: 10 nM

Structure (SMILES): COc1cc2c3c(c1O)C1(C=CC(=O)C=C1)CC3N(C)CC2 (centres unmarked) [glaziovine]
- IC50 [9]: 8000 nM
